Test results: patent US20250099426A1, “Indolium Compounds for Treating Cancer” (Emory University, priority 2022, published 2025)
“Also recorded” adds a separate entry of the source.

Tests used:
pAkt = test: Western blotting of treated LM36R cells, pAkt; format: cell-based; settings: 0.1-5 μM Indolium 1, 24 hours
Experimental: (§1) LM36R cells were grown in six T75 flasks. Upon reaching 70% confluence, cell media was replaced with media with concentrations of 0, 0.1, 0.5, 1, 2.5, and 5 μM Indolium 1. After 24 hours, cells were lysed in RIPA buffer (25 mM Tris-HCl, 150 mM NaCl, 1% NP-40, 1% sodium deoxycholate, 0.1% sodium dodecyl sulfate, pH 7.6) supplemented with HALT™ protease phosphatase inhibitor cocktails and 0.5 M EDTA solution. Cell lysates incubated on ice for 30 minutes, and then centrifuged at 16,000×g at 4° C. for 20 minutes. Protein concentration was determined using the Pierce BCA Protein Assay Kit™ and then normalized. NuPage™ LDS Sample Buffer (4×) and beta-mercaptoethanol were added to the samples, which were subsequently boiled. Sample protein (40 μg) of were loaded into each well of NuPAGE™ 4-12% Bis-Tris precast gels in MOPS buffer against Precision Plus™ Protein Dual Color Standards. Proteins were transferred onto polyvinylidene difluoride membrane using Transblot Turbo™ system. Membrane was blocked for 1 hour at room temperature in 5% non-fat dry milk in 0.1% Tween-Tris-Buffered Saline and probed with Rb (#PA5-27215) pMAPK (9101S), pAkt (#4060S), and beta-tubulin (#2146S) antibodies at 1:1000 dilutions in 5% bovine serum albumin at 4° C. overnight. […] Antibody signal was detected using SuperSignal™ West Pico chemiluminescence substrate with Medical X-Ray Film and digitally scanned.

Rb [1] = test: Immunohistochemistry of in vivo LM36R tumor model, Rb; set-up: species or system mice; settings: treated LM36R tumor tissue versus control tissue
Experimental: (§2) Tumor samples were resected and embedded in formalin, processed, and stained. Formalin-fixed and paraffin-embedded tissue sections from each group were cut to a 5-μm thickness and air-dried. Processing was performed using Ventana DISCOVERY™ Ultra automated immunohistochemistry stainer. Slides were deparaffinized with EZ-Prep (#05279771001) and then were antigen retrieved for 64 minutes with CC1 reagent (#950-500). Rabbit anti-Eph receptor A3 (EphA3) antibody (ab126261) diluted at 1:50, Rabbit anti-Nkx3.2 (#PA5-21108 diluted at 1:500) and mouse anti-Rbl antibody (554136) diluted at 1:100 were applied and incubated for 40 minutes. For the first two stains, DISCOVERY™ OmniMap anti-Rb HRP was applied and incubated for 12 minutes, and the detection was completed in combination with DISCOVERY™ ChromoMap DAB kit for anti-EphA3 antibody and DISCOVERY™ Red kit for anti-Nkx3.2 anti-body, as per manufacturer recommendations. For the Rbl stain, DISCOVERY™ OmniMap anti-mouse HRP was applied and incubated for 12 minutes, and the detection was completed in combination with DISCOVERY™ ChromoMap DAB kit. Slides were counterstained with hematoxylin for 8 minutes. Slides were then dehydrated, cover-slipped, and evaluated by light microscopy. Whole imaging was performed.

EphA3 [2] = test: ATAC-seq of LM36R tumors, chromatin accessibility; format: in vivo; settings: treated versus vehicle LM36R tumors in mice
Experimental: To gain insights into the mechanisms by which Indolium 1 caused decrease in LM36R tumor volume, we analyzed possible changes in chromatin structure in the tumor cells using ATAC-seq. […] To further explore the effects that Indolium 1 has on cells which could have led to tumor size reduction, LM36R cells were treated with varying concentrations of Indolium 1. […] Beta-tubulin was used to confirm even protein concentrations in each sample.
Experiments reported herein indicate that small molecule, Indolium 1 has activity against vemurafenib resistant BRAF mutant melanoma. Vehicle versus Indolium treated tumors in mice were analyzed for potential biomarkers and for insight into the mechanism of Indolium 1 in vivo. […] EphA3 is a receptor tyrosine kinase which binds ligands ephrinA5 and […]. […] First, inactivating mutations in EphA3 are often found in high grade malignancies. Second, activation of wild type EphA3 causes downregulation of Akt, which has previously been implicated in melanoma progression. […] Finally, a novel antibody based therapeutic directed against EphA3, and therapies that induce EphA3 could sensitize melanoma to anit-EphA3 antibodies.

Rb [3] = test: Western blotting of treated LM36R cells, Rb; format: cell-based; settings: 0.1-5 μM Indolium 1, 24 hours
Experimental: as §1

EphA3 [4] = test: Immunohistochemistry of in vivo LM36R tumor model, EphA3; set-up: species or system mice; settings: treated LM36R tumor tissue versus controls
Experimental: as §2

pMAPK = test: Western blotting of treated LM36R cells, pMAPK; format: cell-based; settings: 0.1-5 μM Indolium 1, 24 hours
Experimental: as §1

[5] = set-up: species or system mice; settings: mouse, in vivo
Experimental: The ability to inhibit the growth of vemurafenib resistant melanoma in vivo is unique.
(§3) The xenograft model was developed. A LM36R cell suspension in growth medium was inoculated at 1×10^6 cells/mouse in the right flank of athymic Nu/Nu nude male mice (n=5 per group). MPIB was prepared by dissolving 3.75 mg into 1 mL of ethanol 7. This solution (100 μL) was then diluted to the final concentration in 1 mL of 20% soy-fat Intralipid™ prior to each injection and vortexed vigorously. Vehicle control (ethanol in Intralipid) or MPIB was administered intraperitoneally three times a week at 3 mg/kg/week. MPIB treatment was initiated on the second day after the tumor cell injection, and the tumor volume as well as the weight of the animals were recorded weekly thereafter. Animals were sacrificed and tumors were harvested after tumor volumes reached experimental endpoint as determined by IACUC protocol.

[6] = test system: LM36R, a vemurafenib-resistant melanoma cell line; test: In vivo LM36R xenograft model, tumor volume; set-up: species or system athymic Nu/Nu nude male mice; settings: LM36R 1×10^6 cells/mouse, IP three times a week, 3 mg/kg/week, 4 weeks, N=5/group, p-value=0.03 at week 4
Experimental: Mice were inoculated with LM36R, a vemurafenib-resistant melanoma cell line, at 1×10^6 cells/mouse. Mice were then treated with Indolium via IP administration three times a week at a concentration of 3 mg/kg/week. Tumor growth was compared to control vehicle (sterile water). […] (N=5/group, p-value=0.03) at week 4.
In order to investigate Indolium 1 activity against LM36R, vemurafenib-resistant melanoma cell line, in vivo, 10 mice were inoculated at 1×10^6 cells/mouse. Mice were then treated with indolium 1 via IP administration three times a week at a concentration of 3 mg/kg/week. […] (FIG. 2).
as §3, with “Vehicle control (ethanol in Intralipid) or MPIB was administered intraperitoneally three times a week at 3 mg/kg/week.” left out

LM36R cells = test: Proliferation assay / cell viability (AlamarBlue); format: cell-based; settings: Indolium 1 1 μM, 24 hours
Experimental: Lanes: 1) Control 2) Indolium 1 (1 μM) 3) MEK Inhibitor U0126 (10 μM) 4) Akt Inhibitor II (10 μM) 5) Indolium 1 (1 μM)+MEK Inhibitor U0126 (10 μM) 6) Indolium 1+Akt Inhibitor II (10 μM). *=Statistically lower cell viability compared to control (p<0.05). **=Statistically lower cell viability compared to control and statistically higher cell viability than Indolium 1 treatment (lane 2) alone. Inhibition of MAPK and Akt reverses cell death caused by Indolium 1.
The induction of MAPK and Akt seem to contribute to reduction in tumor size observed in mice treated with Indolium 1. In a cell viability assay, cells were treated with Indolium 1, MEK inhibitor (inhibiting the MAPK signaling pathway directly upstream of MAPK), and Akt inhibitor. Cells were also treated with a combination of Indolium 1 and each inhibitor. […]
A cell proliferation assay was used to study the effect of Indolium 1 in vitro. […] After 4 hours, the plate was read following manufacturer's instructions and the data was processed using Softmax™ Pro software (Molecular Devices). An unpaired two-tailed Student's t-test was performed to determine the significant difference between the control and each treatment group, along with between the Indolium 1 only versus Indolium 1 plus MEK/Akt inhibitor, with significance determined at p<0.05.

Nkx3.2 = test: Immunohistochemistry of in vivo LM36R tumor model, Nkx3.2; set-up: species or system mice; settings: treated LM36R tumor versus control
Experimental: as §2

With “3-(bis(4-(diethylamino)phenyl) methylene)-1-methyl-2-phenyl-3H-indol-1-ium [Indolium 1]” the “pAkt levels (Western blot)” value (pAkt) was “induction”, the Rb immunohistochemical staining (Rb [1]) was “less Rb compared with control tissue” and the “EphA3 chromatin accessibility (ATAC-seq)” value (EphA3 [2]) was “one of the most upregulated genes in terms of chromatin accessibility”. For the same substance, the “levels of Rb (Western blot)” value (Rb [3]) was “decreased with increasing concentrations”, the EphA3 immunohistochemical staining (EphA3 [4]) was “more positivity for EPHA3 compared to controls” and the “pMAPK levels (Western blot)” value (pMAPK) was “induction of phosphorylated MAP kinase”. The tolerability [5] was “well tolerated”, the “tumor volume versus control” value [6] was “potent in vivo activity against LM36R; also recorded: significant reduction of tumor volume; also recorded: reduced tumor volume over 4 weeks” and the relative cell viability (LM36R cells) was “cell death”. For the same substance, the Nkx3.2 immunohistochemical staining (Nkx3.2) was “upregulated Nkx3.2 expression”.
